Reference: patent US20050004211A1, “Pharmaceutical compositions comprising aryl-substituted acyclic enediyne compounds” (KAOHSIUNG MEDICAL UNIVERSITY, priority 2003, published 2005)
Converted amounts (≈) assume the structure as drawn.

How the values were obtained:
[1] = biological target: T1, topoisomerase I (Homo sapiens, UniProt P11387); assay: Topoisomerase I course assay, cleavage of supercoiled pGEM9zf(−) DNA, gel electrophoresis; assay type: biochemical; conditions: for topo I inhibitor, overall finding: no concentration stated
T1 sequence (P11387 1-765): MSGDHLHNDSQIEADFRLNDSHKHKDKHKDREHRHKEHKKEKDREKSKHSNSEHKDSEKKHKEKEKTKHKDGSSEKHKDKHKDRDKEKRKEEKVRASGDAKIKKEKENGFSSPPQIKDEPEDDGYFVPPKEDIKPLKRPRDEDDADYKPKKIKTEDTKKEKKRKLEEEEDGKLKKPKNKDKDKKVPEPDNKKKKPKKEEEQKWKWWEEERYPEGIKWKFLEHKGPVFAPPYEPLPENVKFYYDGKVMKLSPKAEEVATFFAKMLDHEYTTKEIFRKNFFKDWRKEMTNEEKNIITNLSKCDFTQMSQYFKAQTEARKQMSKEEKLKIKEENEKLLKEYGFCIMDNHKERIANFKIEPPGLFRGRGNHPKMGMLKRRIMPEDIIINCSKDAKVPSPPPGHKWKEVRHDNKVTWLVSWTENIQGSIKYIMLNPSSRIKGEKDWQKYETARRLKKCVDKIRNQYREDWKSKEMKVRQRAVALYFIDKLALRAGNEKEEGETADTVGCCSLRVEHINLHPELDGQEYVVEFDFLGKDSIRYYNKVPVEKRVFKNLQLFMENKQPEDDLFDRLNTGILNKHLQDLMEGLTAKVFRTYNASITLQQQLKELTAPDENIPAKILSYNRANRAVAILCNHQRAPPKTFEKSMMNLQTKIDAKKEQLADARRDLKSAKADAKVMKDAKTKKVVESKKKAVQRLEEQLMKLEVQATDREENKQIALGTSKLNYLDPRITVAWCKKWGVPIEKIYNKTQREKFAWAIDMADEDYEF

[2] = system: KB: human oral epidermoid carcinoma; assay: In vitro anticancer assay (cytotoxicity), human solid tumor cells; conditions: for IC50: Homo sapiens, read-out: IC50 Values of Cytotoxicities, KB
[3] = system: Hela: human cervix epitheloid carcinoma; assay: as above; conditions: for IC50: Homo sapiens, HeLa, read-out: IC50 Values of Cytotoxicities, Hela
[4] = system: DLD (DLD-1): human colon adenocarcinoma; assay: as above; conditions: for IC50: Homo sapiens, DLD-1, read-out: IC50 Values of Cytotoxicities, DLD
[5] = system: NCI (NCI-H661): human lung large cell carcinoma; assay: as above; conditions: for IC50 Values of Cytotoxicities, NCI: NCI (NCI-H661); for IC50: Homo sapiens, NCI-H661, read-out: IC50 Values of Cytotoxicities, NCI
[6] = system: Hepa: human hepatoma; assay: as above; conditions: for IC50: Homo sapiens, HepA, read-out: IC50 Values of Cytotoxicities, Hepa
[7] = system: Breast cancer cell MCF-7; assay: Preliminary cytotoxicity test; assay type: cell-based, human
[8] = system: Non-small cell Lung cancer cell NCI-H460; assay: Preliminary cytotoxicity test; assay type: cell-based, human
[9] = system: CNS cancer cell SF-268; assay: Preliminary cytotoxicity test; assay type: cell-based, human

Row | Compound | IC50 Values of Cytotoxicities, KB [2] | IC50 Values of Cytotoxicities, Hela [3] | IC50 Values of Cytotoxicities, DLD [4] | IC50 Values of Cytotoxicities, NCI [5] | IC50 Values of Cytotoxicities, Hepa [6] | IC50 [2] [mg/L] | IC50 [3] [mg/L] | IC50 [4] [mg/L] | IC50 [5] [mg/L] | IC50 [6] [mg/L] | other results
1 | CC[C@@]1(O)C(=O)OCc2c1cc1n(c2=O)Cc2cc3ccccc3nc2-1 [camptothecin, reference compound] | – | – | – | – | – | – | – | – | – | – | inhibition of topo I ([1]; 26.1 μM): less topo I inhibitory activity; inhibition of topo I ([1]; 43.5 μM): observable inhibition of topo I
2 | CCCCCC#Cc1ccccc1C#Cc1ccccc1C#N [Compound 10, 2-(2-(2-Heptynylphenyl)ethynyl)benzonitrile] | — (“—” means IC50 >20 μg/ml) | — (“—” means IC50 >20 μg/ml) | 16.25 mg/L | 9.22 mg/L | 5.13 mg/L | – | – | – | – | – | inhibition of topo I ([1]; 0.87 μM compound): no inhibition of topo I; inhibition of topo I ([1]; 8.7 μM compound): displayed inhibitory activity against topo I; inhibition of topo I ([1]; 87 μM compound): displayed inhibitory activity against topo I
3 | N#Cc1ccccc1C#Cc1ccccc1C#CCCCOC1CCCCO1 (stereo not drawn) [Compound 8] | — (“—” means IC50 >20 μg/ml) | — (“—” means IC50 >20 μg/ml) | 11.65 mg/L | — (“—” means IC50 >20 μg/ml) | — (“—” means IC50 >20 μg/ml) | – | – | – | – | – | –
4 | CCCCC#C/C=C\C#Cc1ccccc1 [Compound 6, (3Z)-Decen-1,5-diynylbenzene] | – | – | – | – | – | 14.4 (≈ 69.3 µM) | > 20 | > 20 | 7.35 (≈ 35.3 µM) | > 20 | topo I inhibitor, overall finding [1]: not Topo I inhibitors
5 | CCCCCCC#C/C=C\C#Cc1ccccc1C(=O)O [Compound 22, 2-(3-(Z)-Dodecen-1,5-diynyl)benzoate] | — (“—” means IC50 >20 μg/ml) | — (“—” means IC50 >20 μg/ml) | 7.27 mg/L | — (“—” means IC50 >20 μg/ml) | — (“—” means IC50 >20 μg/ml) | – | – | – | – | – | –
6 | CCCCCCC#C/C=C\C#Cc1cccs1 [Compound 16, 2-(3-(Z)-Dodecen-1,5-diynyl)thiophene] | – | – | – | – | – | > 20 | > 20 | 6.75 (≈ 27.8 µM) | > 20 | > 20 | –
7 | CCCCCCC#C/C=C\C#Cc1ccc(C#N)cc1 [Compound 14, 4-(3-(Z)-Dodecen-1,5-diynyl)benzonitrile] | – | – | – | – | – | > 20 | > 20 | 11.9 (≈ 45.6 µM) | > 20 | > 20 | –
8 | CCCCCCC#C/C=C\C#Cc1cccc(C(F)(F)F)c1 [Compound 19, 3-(3-(Z)-Dodecen-1,5-diynyl)trifluoromethylbenzene] | 6.74 mg/L | — (“—” means IC50 >20 μg/ml) | 7.05 mg/L | 7.73 mg/L | 14.39 mg/L | – | – | – | – | – | –
9 | CCCCC#Cc1ccccc1C#Cc1ccccc1C#N [Compound 9, 2-(2-(2-Hexynylphenyl)ethynyl)benzonitrile] | — (“—” means IC50 >20 μg/ml) | — (“—” means IC50 >20 μg/ml) | 8.98 mg/L | — (“—” means IC50 >20 μg/ml) | — (“—” means IC50 >20 μg/ml) | – | – | – | – | – | inhibition of topo I ([1]; 0.87 μM compound): no supercoiled DNA observed; inhibition of topo I ([1]; 8.7 μM compound): no supercoiled DNA observed; inhibition of topo I ([1]; 87 μM compound): showed restraint of topo I
10 | CCCCCCC#C/C=C\C#Cc1ccc(C#C/C=C\C#CCCCCCC)cc1 [Compound 11, 1,4-Bis-(3-(Z)-Dodecen-1,5-diynyl)benzene] | – | – | – | – | – | > 20 | > 20 | > 20 | > 20 | > 20 | inhibition of topo I ([1]; 8.7 μM compound): No supercoiled DNA was observed; inhibition of topo I ([1]; 87 μM compound): No supercoiled DNA was observed; topo I inhibitor, overall finding [1]: not topo I inhibitors
11 | 2-(6-(2-xylenyl)-3-hexen-1,5-diyne)benzonitrile [Compound 24] | – | – | – | – | – | – | – | – | – | – | Growth percentage, Breast cancer cell MCF-7 [7]: 101%; Growth percentage, Non-small cell Lung cancer cell NCI-H460 [8]: 129%; Growth percentage, CNS cancer cell SF-268 [9]: 111%
12 | CCCCCCC#C/C=C\C#Cc1ccc([N+](=O)[O-])cc1 [Compound 21, 4-nitro-1-(3-(Z)-dodecen-1,5-diynyl)benzene] | – | – | – | – | – | 13 (≈ 46.2 µM) | > 20 | 1.66 (≈ 5.9 µM) | > 20 | > 20 | –
13 | CCCCCCC#C/C=C\C#Cc1cnccn1 [Compound 17, 2-(3-(Z)-Dodecen-1,5-diynyl)pyrazine] | – | – | – | – | – | 5.93 (≈ 24.9 µM) | 5.3 (≈ 22.2 µM) | 3.89 (≈ 16.3 µM) | 9.43 (≈ 39.6 µM) | 12.3 (≈ 51.8 µM) | –
14 | CCCCCCC#C/C=C\C#Cc1ccccc1C(F)(F)F [Compound 20, 2-(3-(Z)-Dodecen-1,5-diynyl)trifluoromethylbenzene] | 19.65 mg/L | 2.15 mg/L | 8.91 mg/L | 5.02 mg/L | 12.24 mg/L | – | – | – | – | – | –
15 | 2-(6-(2-thioanisyl)-3-hexen-1,5-diynyl)benzonitrile [Compound 31] | – | – | – | – | – | – | – | – | – | – | Growth percentage, Breast cancer cell MCF-7 [7]: 62%; Growth percentage, Non-small cell Lung cancer cell NCI-H460 [8]: 100%; Growth percentage, CNS cancer cell SF-268 [9]: 164%
16 | CCCCCCC#C/C=C\C#Cc1ccc(-c2ccc(C#C/C=C\C#CCCCCCC)cc2)cc1 [Compound 12, 4,4′-Bis-(3-(Z)-Dodecen-1,5-diynyl)biphenyl] | – | – | – | – | – | 5.57 (≈ 11.8 µM) | > 20 | > 20 | > 20 | > 20 | inhibition of topo I ([1]; 8.7 μM compound): No supercoiled DNA was observed; inhibition of topo I ([1]; 87 μM compound): No supercoiled DNA was observed; topo I inhibitor, overall finding [1]: not topo I inhibitors
17 | CCCCCCC#C/C=C\C#Cc1ccc(C(F)(F)F)cc1 [Compound 18, 4-(3-(Z)-Dodecen-1,5-diynyl)trifluoromethylbenzene] | 4.32 mg/L | 5.86 mg/L | 5.71 mg/L | 11.15 mg/L | 17.08 mg/L | – | – | – | – | – | inhibition of topo I ([1]; 87 μM compound): displayed inhibitory activities of topo I
18 | N#Cc1ccccc1C#Cc1ccccc1C#CCOC1CCCCO1 (stereo not drawn) [Compound 7, 2-(2-(3-Tetrahydro-pyranyl-5-oxy-1-propynylphenyl)ethynyl)benzonitrile] | — (“—” means IC50 >20 μg/ml) | — (“—” means IC50 >20 μg/ml) | — (“—” means IC50 >20 μg/ml) | — (“—” means IC50 >20 μg/ml) | — (“—” means IC50 >20 μg/ml) | – | – | – | – | – | –
19 | N#Cc1ccccc1C#CC=CC#Cc1ccc(N)cc1 [Compound 33, 2-[6-(p-anilinyl)-3-hexen-1,5-diynyl]benzonitrile] | – | – | – | – | – | – | – | – | – | – | Growth percentage, Breast cancer cell MCF-7 [7]: 100%; Growth percentage, Non-small cell Lung cancer cell NCI-H460 [8]: 94%; Growth percentage, CNS cancer cell SF-268 [9]: 92%
20 | Cc1ccc(C#CC=CC#Cc2ccccc2C#N)cc1 [Compound 28, 2-(6-(4-tolyl)-3-hexen-1,5-diynyl)benzonitrile] | – | – | – | – | – | – | – | – | – | – | Growth percentage, Breast cancer cell MCF-7 [7]: 80%; Growth percentage, Non-small cell Lung cancer cell NCI-H460 [8]: 96%; Growth percentage, CNS cancer cell SF-268 [9]: 105%
21 | N#Cc1ccccc1C#CC=CC#Cc1cccs1 [Compound 29, 2-(6-(2-thienyl)-3-hexen-1,5-diynyl)benzonitrile] | – | – | – | – | – | – | – | – | – | – | Growth percentage, Breast cancer cell MCF-7 [7]: 49%; Growth percentage, Non-small cell Lung cancer cell NCI-H460 [8]: 34%; Growth percentage, CNS cancer cell SF-268 [9]: 96%
22 | CCCCCCC#C/C=C\C#Cc1ccccn1 [Compound 15, 2-(3-(Z)-Dodecen-1,5-diynyl)pyridine] | – | – | – | – | – | > 20 | > 20 | 5.15 (≈ 21.7 µM) | > 20 | > 20 | –
